ChEMBL document CHEMBL5046315, “CRCM5484: A BET-BDII Selective Compound with Differential Anti-leukemic Drug Modulation” (J Med Chem, 2022)
pEC50, pIC50, pKd: −log10 of the molar value. Active and inactive are the calls of the source. The rule behind the calls is not given here.

Assays:
Homo sapiens [1] = species: Homo sapiens; test: Selectivity ratio of IC50 for BRD3-BD1 (unknown origin) to IC50 for BRD3-BD2 (unknown origin)
[2] = molecular target: T1, Bromodomain-containing protein 3 (Homo sapiens, UniProt Q15059); test: Inhibition of BRD3-BD2 (unknown origin) incubated for 6 hrs by HTRF method
[3] = molecular target: T1, Bromodomain-containing protein 3; test: Inhibition of BRD3-BD1 domain (unknown origin) incubated for 6 hrs by HTRF method
[4] = molecular target: T2, Bromodomain-containing protein 4 (Homo sapiens, UniProt O60885); test: Inhibition of BRD4-BD1 (unknown origin) (N44 to E168 residues) expressed in bacterial expression system assessed as dissociation constant by BROMOscan method
[5] = molecular target: T2, Bromodomain-containing protein 4; test: Inhibition of BRD4-BD2 (unknown origin) (K333 to E460 residues) expressed in bacterial system assessed as dissociation constant by BROMOscan method
[6] = molecular target: T2, Bromodomain-containing protein 4; test: Inhibition of BRD4-BD2 (unknown origin) incubated for 6 hrs by HTRF method
Homo sapiens [7] = species: Homo sapiens; test: Selectivity ratio of IC50 for BRD4-BD1 (unknown origin) to IC50 for BRD4-BD2 (unknown origin)
[8] = molecular target: T2, Bromodomain-containing protein 4; test: Inhibition of BRD4-BD1 (unknown origin) incubated for 6 hrs by HTRF method
NB-4 = test: Cytotoxicity against human NB-4 cells assessed as reduction in cell viability incubated for 72 hrs; assay type: functional, cell-based; conditions: NB-4, 72 h
MOLM-14 [9] = test: cells; conditions: Homo sapiens, MOLM-14, 72 h
Description: Cytotoxicity against human MOLM-14 cells assessed as reduction in cell viability incubated for 72 hrs

MOLM-14 [10] = test: Downregulation of Myc expression in human MOLM-14 cells incubated for 2 hrs by RT-PCR analysis; assay type: functional, cell-based; conditions: dose 5.0 µM
CCRF-CEM = test: Cytotoxicity against human CCRF-CEM cells assessed as reduction in cell viability incubated for 72 hrs; assay type: functional, cell-based
K562 [11] = test: Cytotoxicity against human K562 cells assessed as reduction in cell viability incubated for 72 hrs; assay type: functional, cell-based; conditions: K562, 72 h
[12] = molecular target: T1, Bromodomain-containing protein 3; test: Inhibition of BRD3-BD1 (unknown origin) assessed as dissociation constant by TR-FRET method
[13] = molecular target: T3, Bromodomain-containing protein 2 (Homo sapiens, UniProt P25440); test: Binding affinity to human partial length BRD2-BD2 (E348 to D455) expressed in bacterial system assessed as dissociation constant by BROMOscan method
[14] = molecular target: T3, Bromodomain-containing protein 2; test: Inhibition of BRD2-BD2 (unknown origin) incubated for 6 hrs by HTRF method
[15] = molecular target: T2, Bromodomain-containing protein 4; test: Binding affinity to human partial length BRD4-BD2 (K333 to E460 residues) expressed in bacterial system assessed as dissociation constant by BROMOscan method
[16] = molecular target: T1, Bromodomain-containing protein 3; test: Binding affinity to human partial length BRD3-BD2 (G306 to P416) expressed in bacterial system assessed as dissociation constant by BROMOscan method
K562 [17] = test: Inhibition of IFNgamma induced MHC-1 expression in human K562 cells treated for 48 hrs by flow cytometric analysis; assay type: functional, cell-based; conditions: dose 0.2-20 µM

T1 sequence (Q15059 whole entry, the tested form may be a part): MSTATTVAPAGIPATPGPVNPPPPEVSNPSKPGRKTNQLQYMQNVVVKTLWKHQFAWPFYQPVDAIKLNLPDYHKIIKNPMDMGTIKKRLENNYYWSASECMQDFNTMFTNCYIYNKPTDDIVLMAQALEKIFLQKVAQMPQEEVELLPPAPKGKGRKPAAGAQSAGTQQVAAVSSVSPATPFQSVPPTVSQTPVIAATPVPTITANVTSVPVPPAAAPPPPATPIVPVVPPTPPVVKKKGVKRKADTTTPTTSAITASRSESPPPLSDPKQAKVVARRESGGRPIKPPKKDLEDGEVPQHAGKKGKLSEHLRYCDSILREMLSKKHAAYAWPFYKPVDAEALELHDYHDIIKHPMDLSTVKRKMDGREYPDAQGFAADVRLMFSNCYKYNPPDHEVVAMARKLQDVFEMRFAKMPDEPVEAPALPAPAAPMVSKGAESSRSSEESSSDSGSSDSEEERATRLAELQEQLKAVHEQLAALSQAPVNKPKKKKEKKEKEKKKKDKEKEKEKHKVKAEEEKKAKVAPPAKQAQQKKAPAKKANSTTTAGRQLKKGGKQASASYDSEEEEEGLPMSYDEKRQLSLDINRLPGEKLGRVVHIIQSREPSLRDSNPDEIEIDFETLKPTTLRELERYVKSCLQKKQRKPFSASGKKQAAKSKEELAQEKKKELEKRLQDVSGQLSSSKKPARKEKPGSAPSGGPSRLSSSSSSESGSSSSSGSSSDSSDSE
T3 sequence (P25440 whole entry): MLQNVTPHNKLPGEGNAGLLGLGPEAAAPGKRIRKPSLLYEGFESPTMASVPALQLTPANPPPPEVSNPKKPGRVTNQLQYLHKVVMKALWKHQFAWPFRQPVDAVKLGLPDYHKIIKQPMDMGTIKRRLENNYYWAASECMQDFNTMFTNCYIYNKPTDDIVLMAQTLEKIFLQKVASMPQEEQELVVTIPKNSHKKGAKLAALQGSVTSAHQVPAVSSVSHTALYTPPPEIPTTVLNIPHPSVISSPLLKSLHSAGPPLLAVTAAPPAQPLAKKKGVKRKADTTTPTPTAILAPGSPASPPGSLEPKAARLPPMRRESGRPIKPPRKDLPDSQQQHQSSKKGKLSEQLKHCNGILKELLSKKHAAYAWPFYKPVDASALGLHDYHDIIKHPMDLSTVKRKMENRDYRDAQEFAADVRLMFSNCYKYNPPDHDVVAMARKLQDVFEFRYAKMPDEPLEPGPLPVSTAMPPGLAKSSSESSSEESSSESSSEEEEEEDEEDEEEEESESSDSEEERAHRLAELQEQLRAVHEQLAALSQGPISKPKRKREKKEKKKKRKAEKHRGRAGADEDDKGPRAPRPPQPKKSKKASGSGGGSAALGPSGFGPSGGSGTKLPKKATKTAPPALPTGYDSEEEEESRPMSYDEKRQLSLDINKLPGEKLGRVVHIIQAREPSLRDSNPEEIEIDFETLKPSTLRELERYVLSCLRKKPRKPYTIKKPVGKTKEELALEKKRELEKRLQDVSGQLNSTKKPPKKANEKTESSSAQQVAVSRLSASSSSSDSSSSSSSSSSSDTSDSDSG

| Structure (SMILES) | Ratio IC50 (Homo sapiens [1]) | pIC50 [2] | pIC50 [3] | further results |
| --- | --- | --- | --- | --- |
| CC(=O)c1cccc(NC(=O)CSc2nc3sc4c(c3c(=O)n2Cc2ccco2)CCN(C(C)=O)C4)c1 | 9 | 6.77 | 5.39 |  |
| CCC(=O)N1CCc2c(sc3[nH]c(=O)n(C4CCCCC4)c(=O)c23)C1 |  |  | < 4.60 |  |
| CC(=O)N1CCc2c(sc3nc(SCC(=O)Nc4ccccc4F)n(Cc4ccco4)c(=O)c23)C1 | 20 | 6.68 | 5.12 |  |
| CC(=O)N1c2ccc(C3=CCNCC3)cc2N(Cc2ccccc2CO)C[C@@H]1C1CC1 |  |  |  | pKd [4]: 5.52; pKd [5]: 7.20 |
| CC(=O)N1CCc2c(sc3nc(SCC(=O)Nc4ccccc4)n(-c4ccccc4)c(=O)c23)C1 | > 5 | 5.26 | < 4.60 |  |
| CC(=O)N1CCc2c(sc3nc(SCC(=O)Nc4ccc(C)cc4)n(Cc4ccco4)c(=O)c23)C1 | 5 | 6.20 | 5.49 |  |
| COc1ccccc1NC(=O)CSc1nc2sc3c(c2c(=O)n1Cc1ccco1)CCN(C(C)=O)C3 | 31 | 7.14 |  |  |
| CC(=O)N1CCc2c(sc3nc(SCC(=O)Nc4cc(Cl)ccc4C)n(-c4ccccc4)c(=O)c23)C1 | > 4 | 5.20 | < 4.60 |  |
| COc1cc(C(=O)C(=Cc2ccncc2)c2nc3ccccc3o2)cc(OC)c1OC |  |  |  | pIC50 [6]: 6.10; Ratio IC50 (Homo sapiens [7]): 5.4 |
| Cc1nn(CCO)c(C)c1-c1c(C)c(-c2ccc(O)cc2)nc(N)c1C#N |  |  |  | pIC50 [8]: 5.09; pIC50 [6]: 6.05; Ratio IC50 (Homo sapiens [7]): 9 |
| CC(=O)N1CCc2c(sc3nc(SCC(=O)Nc4ccc(Cl)cc4)n(Cc4ccco4)c(=O)c23)C1 | 8 | 6.28 | 5.35 |  |
| CC(=O)N1CCc2c(sc3nc(SCC(=O)Nc4cc(Cl)ccc4C)n(-c4ccc(C)o4)c(=O)c23)C1 | 19 | 6.39 | 5.11 |  |
| Cc1ccc(-c2c(C)noc2C)cc1S(=O)(=O)Nc1cccc(C)c1C |  |  |  | pIC50 [6]: 6.05; Ratio IC50 (Homo sapiens [7]): 12 |
| CC(=O)N1CCc2c(sc3nc(SCC(=O)Nc4ccc(F)cc4F)n(Cc4ccco4)c(=O)c23)C1 | 13 | 6.42 | 5.46 |  |
| CC(=O)Nc1c(F)cc(C(=O)N[C@H]2CC[C@H](O)CC2)cc1O[C@@H](C)c1ccccc1 [GSK046] |  |  |  | pEC50 (NB-4): < 5.30; pEC50 (MOLM-14 [9]): 4.85; Activity (MOLM-14 [10]): Dose-Dependent Effect; pEC50 (CCRF-CEM): < 5.30; pEC50 (K562 [11]): < 5.30; pIC50 [12]: 5.44 |
| CC(=O)N1CCc2c(sc3nc(SCC(=O)Nc4cc(Cl)ccc4C)n(Cc4ccco4)c(=O)c23)C1 |  | 7.07 | 5.07 | pIC50 [13]: 5.59; pIC50 [14]: 6.92; pIC50 [15]: 6.11; pIC50 [16]: 6.49; pIC50 [6]: 6.05; Ratio IC50 (Homo sapiens [7]): 4.4 |
| COc1cccc(NC(=O)CSc2nc3sc4c(c3c(=O)n2Cc2ccco2)CCN(C(C)=O)C4)c1 | 9 | 6.52 | 4.85 |  |
| CC(=O)c1ccc(NC(=O)CSc2nc3sc4c(c3c(=O)n2Cc2ccco2)CCN(C(C)=O)C4)cc1 | 4 | 6.49 | 5.82 |  |
| COc1ccc(NC(=O)CSc2nc3sc4c(c3c(=O)n2Cc2ccco2)CCN(C(C)=O)C4)cc1 | 6 | 6.24 | 5.66 |  |

| Structure (SMILES) | Ratio IC50 (Homo sapiens [1]) | pIC50 [2] | pIC50 [3] | further results |
| --- | --- | --- | --- | --- |
| Cc1sc2c(c1C)C(c1ccc(Cl)cc1)=N[C@@H](CC(=O)Nc1ccc(O)cc1)c1nnc(C)n1-2 [BIRABRESIB] |  |  |  | pEC50 (MOLM-14 [9]): 7.10; Activity (K562 [17]): Active; Activity (MOLM-14 [10]): Dose-Dependent Effect |
| CCOc1ccc(NC(=O)CSc2nc3sc4c(c3c(=O)n2Cc2ccco2)CCN(C(C)=O)C4)cc1 | 4 | 6.06 | 5.89 |  |
| CC(=O)N1CCc2c(sc3nc(SCC(=O)Nc4cc(F)ccc4F)n(Cc4ccco4)c(=O)c23)C1 | 24 | 6.77 | 5.35 |  |
| CC(=O)N1CCc2c(sc3nc(SCC(=O)Nc4cccc(Cl)c4)n(Cc4ccco4)c(=O)c23)C1 | 9 | 6.31 | 5.51 |  |
| CSc1cccc(NC(=O)CSc2nc3sc4c(c3c(=O)n2Cc2ccco2)CCN(C(C)=O)C4)c1 | 11 | 6.39 | 5.19 |  |
| CC(=O)N1CCc2c(sc3nc(SCC(=O)Nc4ccc(C)c(F)c4)n(Cc4ccco4)c(=O)c23)C1 | 31 | 6.68 | 5.38 |  |
| CC(=O)N1CCc2c(sc3nc(SCC(=O)Nc4ccc(F)cc4)n(Cc4ccco4)c(=O)c23)C1 | 7 | 6.38 | 5.44 |  |
| O=C1c2ccc(Oc3cccc(Oc4ccc5c(c4)C(=O)N(c4ccc(O)cc4)C5=O)c3)cc2C(=O)N1c1ccc(O)cc1 |  |  |  | pIC50 [6]: 5.49; Ratio IC50 (Homo sapiens [7]): 0.4 |
| CC(=O)N1CCc2c(sc3nc(SCC(=O)Nc4ccccc4)n(Cc4ccco4)c(=O)c23)C1 | 100 | 6.85 | 4.85 |  |
| Cc1cc(F)ccc1NS(=O)(=O)c1cc(-c2c(C)noc2C)ccc1C |  |  |  | pIC50 [6]: 5.82; Ratio IC50 (Homo sapiens [7]): 4.9 |
| CC(=O)N1CCc2c(sc3nc(SCC(=O)Nc4ccc(F)c(Cl)c4)n(Cc4ccco4)c(=O)c23)C1 | 7 | 6.13 | 5.42 |  |
| CC(=O)N1CCc2c(sc3nc(SCC(=O)Nc4cccc(C)c4)n(Cc4ccco4)c(=O)c23)C1 | 12 | 6.36 |  |  |
| CCc1cccc(C)c1NS(=O)(=O)c1cc(-c2c(C)noc2C)ccc1C |  |  |  | pIC50 [6]: 5.96; Ratio IC50 (Homo sapiens [7]): 7.8 |
| CCOc1ccccc1NC(=O)CSc1nc2sc3c(c2c(=O)n1Cc1ccco1)CCN(C(C)=O)C3 | 23 | 6.82 | 5.36 |  |
| COc1cc(OC)c2c(=O)[nH]c(-c3cc(C)c(OCCO)c(C)c3)nc2c1 [APABETALONE] |  |  |  | pEC50 (NB-4): < 5.30; pEC50 (MOLM-14 [9]): 5.17; Activity (MOLM-14 [10]): Dose-Dependent Effect; pEC50 (CCRF-CEM): < 5.30; pEC50 (K562 [11]): < 5.30 |
| CC(=O)N1CCc2c(sc3nc(SCC(=O)Nc4ccccc4Cl)n(Cc4ccco4)c(=O)c23)C1 | 23 | 7.00 | 5.55 |  |
| CC(=O)N1CCc2c(sc3nc(SCC(=O)Nc4ccc(F)c(F)c4)n(Cc4ccco4)c(=O)c23)C1 | 8 | 6.33 | 5.31 |  |
| CC(=O)N1CCc2c(sc3nc(SCC(=O)Nc4ccccc4C)n(Cc4ccco4)c(=O)c23)C1 | 15 | 6.66 | 5.52 |  |
